Test [1] has as its target T1, BACE1 (Homo sapiens, UniProt P56817). The experiment in a line: In Vitro Enzymatic BACE FRET (Fluorescence Resonance Energy Transfer) Assay. It counts as biochemical. Put shortly: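 First, compound and enzyme sit in 0.05 M acetate (pH 4.2, 10% DMSO final, 100 uM nonionic genapol). Next, 50 nM quenched FRET peptide starts the reaction for one hour. Last, Tris neutralises the mixture before fluorescence is measured.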

The target of test [2] is T1, BACE1. The experiment in a line: In Vitro BACE Cell-based Assay (HEK cell assay): Aβ40 in conditioned medium of cells stably expressing Amyloid Precursor Protein, sandwich ELISA. Put shortly:
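Read-out is time-resolved fluorescence of Aβ40 in supernatant, captured by pAb40 and detected with biotinylated 6E10 plus Streptavidin-Europium. Cells stably expressing APP received compounds for 24 h over 10 concentrations starting at 100 μM or 10 μM, final DMSO 0.1%.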

Where [3] appears, read: Table III, IC50's in uM ranges, read-out: BACE1 FRET assay.
[4] abbreviates: Table III, IC50's in uM ranges, read-out: HEK cell assay.
The mark [5] stands for this setting: Table IV, class symbols, read-out: BACE1 FRET assay.
[6] abbreviates: Table IV, class symbols, read-out: HEK cell assay.
[7] abbreviates: Table II, read-out: BACE1 FRET assay.
Where [8] appears, read: Table II, Aβ40, 24 h incubation, read-out: HEK cell assay.
Setting [9] is: in vitro BACE FRET enzyme assay, IC50 class symbols, read-out: BACE1 FRET assay.
Where [10] appears, read: HEK cell-based assay, Aβ40 in conditioned medium, IC50 class symbols, read-out: HEK cell assay.
Where [11] appears, read: HEK cells, read-out: HEK cell assay.

pIC50: −log10 of the molar value. Bounds are passed on as bounds.

In US8426447B2, “Spiro-tricyclic ring compounds as beta-secretase modulators and methods of use” (Amgen Inc., priority 2008, dated 2013) one finds IC50 data, which are given here for 38 compounds.

T1 sequence (P56817 46-501, species assumed): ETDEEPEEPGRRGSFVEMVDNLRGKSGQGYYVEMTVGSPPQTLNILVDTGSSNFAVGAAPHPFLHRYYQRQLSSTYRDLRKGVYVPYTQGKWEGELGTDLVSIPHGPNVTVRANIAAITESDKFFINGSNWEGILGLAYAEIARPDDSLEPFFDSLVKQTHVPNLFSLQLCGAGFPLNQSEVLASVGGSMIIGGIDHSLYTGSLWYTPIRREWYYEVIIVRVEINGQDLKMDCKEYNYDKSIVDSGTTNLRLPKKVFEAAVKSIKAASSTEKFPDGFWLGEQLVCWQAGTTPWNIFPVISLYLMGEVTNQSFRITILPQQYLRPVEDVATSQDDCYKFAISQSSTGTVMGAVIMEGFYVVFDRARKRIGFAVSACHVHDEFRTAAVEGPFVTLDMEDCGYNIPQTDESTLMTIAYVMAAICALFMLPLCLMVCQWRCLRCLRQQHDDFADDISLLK

With `CC(C)(C)CCc1ccc2c(c1)[C@]1(COC(N)=N1)c1cc(-c3cccnc3)cnc1O2` [182b], the results for the IC50 at BACE1 [1] (setting [3]) and at BACE1 [2] (setting [4]) were below 0.1 µM and 0.1 to 1 µM, respectively.

Turning to `CC(C)(C)COc1ccc2c(c1)[C@]1(COC(N)=N1)c1cc(-c3ccc(C#N)nc3)ccc1O2` [compound 882], the pIC50 was above 7.00 at BACE1 [1] (setting [5]) and 5.30 to 6.00 at BACE1 [2] (setting [6]).

As to `CC(C)(C)COc1ccc2c(c1)[C@]1(COC(N)=N1)c1ccccc1O2` [compound 655], the results for the pIC50 on BACE1 [1] (setting [5]) and at BACE1 [2] (setting [6]) were 5.30 to 6.00 and below 5.30, respectively.

Consider `CN(C)c1ncc(-c2ccc3c(c2)[C@@]2(COC(N)=N2)c2cc(OCC(C)(C)C)ccc2O3)cn1` [compound 838], for which the pIC50 on BACE1 [1] (setting [5]) and at BACE1 [2] (setting [6]) was below 5.30 throughout.

With `CC(C)(C)CC(O)c1ccc2c(c1)[C@]1(COC(N)=N1)c1cc(-c3ccc(F)nc3)ccc1O2` (stereo partly shown) [162a], the IC50 on BACE1 [1] (setting [3]) and on BACE1 [2] (setting [4]) was 0.1 to 1 µM in each case.

Consider `CC(C)(F)COc1ccc2c(c1)[C@]1(COC=N1)c1cc(Br)c(N)nc1O2` [compound 171], for which the IC50 was 0.1 to 1 µM at BACE1 [1] (setting [3]) and 1 to 5 µM on BACE1 [2] (setting [4]).

As for `N#Cc1ccc(-c2ccc3c(c2)[C@]2(COC(N)=N2)c2cc(-c4cccnc4)ccc2O3)cc1` [compound 204], the IC50 on BACE1 [1] (setting [3]) and at BACE1 [2] (setting [4]) was below 0.1 µM throughout.

With `CC(C)(C)COc1ccc2c(c1)[C@]1(COC(N)=N1)c1cc(-c3ccoc3)ccc1O2` [Example 76, (4S)-2′-(2,2-dimethylpropoxy)-7′-(3-furanyl)spiro[1,3-oxazole-4,9′-xanthen]-2-amine], the values for the pIC50 at BACE1 [1] (setting [7]) and on BACE1 [2] (setting [8]) were above 7.00 and 5.30 to 6.00, respectively.

As to `C[C@H]1OC(N)=N[C@]12c1cc(OCC(C)(C)C)ccc1Oc1ccc(-c3cncnc3)cc12` [126c], the IC50 was 0.1 to 1 µM on BACE1 [1] (setting [3]) and 1 to 5 µM on BACE1 [2] (setting [4]).

For the compound `NC1=N[C@@]2(CO1)c1cc(-c3cccc(F)c3)ccc1Oc1cnc(-c3cccc(F)c3)cc12` [compound 366], the values for the pIC50 at BACE1 [1] (setting [9]) and at BACE1 [2] (setting [10]) were above 7.00 and 6.00 to 7.00, respectively.

As to `NC1=N[C@@]2(CO1)c1cc(-c3cncc(F)c3)ccc1Oc1cnc(C3CCOCC3)cc12` [compound 331], the pIC50 on BACE1 [1] (setting [9]) and on BACE1 [2] (setting [10]) was above 7.00 throughout.

As for `NC1=N[C@]2(CO1)c1cc(C3=CCOCC3)ccc1Oc1cnc(-c3ccccc3F)cc12` [compound 498], the pIC50 is above 7.00 at BACE1 [1] (read-out: BACE1 FRET assay) and 6.00 to 7.00 at BACE1 [2] (setting [11]).

In the case of `COC(C)(C)C#Cc1cnc2c(c1)[C@@]1(COC(N)=N1)c1cc(-c3cncc(F)c3)ccc1O2` [compound 699], the pIC50 on BACE1 [1] (read-out: BACE1 FRET assay) was 6.00 to 7.00; on BACE1 [2] (read-out: HEK cell assay), 5.30 to 6.00.

Consider `COc1ccc2c(c1)[C@]1(COC(N)=N1)c1cc(NC(=O)c3ccccn3)ccc1O2` [compound 615], for which the pIC50 at BACE1 [1] (setting [5]) and at BACE1 [2] (setting [6]) was 6.00 to 7.00 each time.

On to `CC(C)(C)COc1ccc2c(c1)[C@]1(COC(N)=N1)c1cc(-c3cc(Cl)ccc3F)cnc1O2` [Example 91, (5R)-3-(5-chloro-2-fluorophenyl)-7-(2,2-dimethylpropoxy)spiro[chromeno[2,3-b]pyridine-5,4′-[1,3]oxazol]-2′-amine], for which the values for the pIC50 on BACE1 [1] (setting [7]) and at BACE1 [2] (setting [8]) were above 7.00 and 6.00 to 7.00, respectively.

In the case of `CC(C)(C)C#Cc1ccc2c(n1)[C@]1(COC(N)=N1)c1cc(-c3cncnc3)ccc1O2` [compound 526], the pIC50 on BACE1 [1] (read-out: BACE1 FRET assay) and on BACE1 [2] (setting [11]) was 6.00 to 7.00 throughout.

Regarding `NC1=N[C@]2(CO1)c1cc(Br)ccc1Oc1ncccc12` [compound 600], the pIC50 at BACE1 [1] (setting [5]) and on BACE1 [2] (setting [6]) was below 5.30 each time.

For the compound `NC1=N[C@@]2(CO1)c1cc(-c3cccnc3)ccc1Oc1ccc(N3CCCC3=O)cc12` [compound 863], the pIC50 at BACE1 [1] (setting [5]) is above 7.00; at BACE1 [2] (setting [6]) it was 6.00 to 7.00.

Turning to `Cc1cncc(-c2ccc3c(c2)[C@@]2(COC(N)=N2)c2cc(OCC(C)(C)C)ccc2O3)c1` [Example 81, (4S)-2′-(2,2-dimethylpropoxy)-7′-(5-methyl-3-pyridinyl)spiro[1,3-oxazole-4,9′-xanthen]-2-amine], the pIC50 at BACE1 [1] (setting [7]) and at BACE1 [2] (setting [8]) was above 7.00 throughout.

`COc1ccc(-c2ccc3c(c2)[C@@]2(COC(N)=N2)c2cc(C#CC(C)(C)OC)cnc2O3)cn1` [compound 767]: the pIC50 on BACE1 [1] (read-out: BACE1 FRET assay) and on BACE1 [2] (read-out: HEK cell assay) was 6.00 to 7.00 each time.

As to `NC1=N[C@@]2(CO1)c1cc(-c3cccnc3)ccc1Oc1c(F)cc(OCC(=O)C3CC3)cc12` [compound 387], the pIC50 at BACE1 [1] (setting [9]) and on BACE1 [2] (setting [10]) was above 7.00 in each case.

As for `NC1=N[C@]2(CO1)c1cc(-c3cccnc3)ccc1Oc1ncccc12` [compound 635], the pIC50 at BACE1 [1] (setting [5]) and at BACE1 [2] (setting [6]) was 6.00 to 7.00 throughout.

Consider `NC1=N[C@@]2(CO1)c1cc(-c3cncnc3)ccc1Oc1ncc(C3=CCOCC3)cc12` [compound 805], for which the pIC50 on BACE1 [1] (setting [5]) and at BACE1 [2] (setting [6]) was above 7.00 throughout.

For the compound `CC1(C)CC(c2cc3c(cn2)Oc2ccc(-c4cccnc4F)cc2[C@@]32COC(N)=N2)=CCO1` [compound 434], the IC50 at BACE1 [1] (BACE1 FRET assay (uM)) was below 0.1 µM; against BACE1 [2] (HEK cell assay (uM), HEK cells), below 0.1 µM.

With `NC1=NC2(CO1)c1cnc(Cl)cc1Oc1ccc(-c3cncnc3)cc12` (stereo not shown) [compound 852], the pIC50 on BACE1 [1] (setting [5]) is 5.30 to 6.00; at BACE1 [2] (setting [6]), below 5.30.

With `COc1ccc2c(c1)[C@]1(COC(N)=N1)c1cc(C#CC(C)(C)C)cnc1O2` [compound 904], the values for the pIC50 at BACE1 [1] (setting [5]) and on BACE1 [2] (setting [6]) were below 5.30 and 6.00 to 7.00, respectively.

`CC(C)(C#N)COc1ccc2c(c1)[C@]1(COC(N)=N1)c1cc(-c3cccnc3)cnc1O2` [compound 168]: the IC50 on BACE1 [1] (setting [3]) and at BACE1 [2] (setting [4]) was below 0.1 µM in each case.

Regarding `NC1=N[C@@]2(CO1)c1cc(-c3cccc(F)c3)ccc1Oc1cnc(C3=CCOCC3)cc12` [compound 485], the pIC50 on BACE1 [1] (read-out: BACE1 FRET assay) and at BACE1 [2] (setting [11]) was above 7.00 each time.

For the compound `COC(C)(C)C#Cc1cnc2c(c1)[C@@]1(COC(N)=N1)c1cc(-c3cnccn3)ccc1O2` [compound 694], the pIC50 at BACE1 [1] (read-out: BACE1 FRET assay) is 5.30 to 6.00; at BACE1 [2] (read-out: HEK cell assay), below 5.30.

For `COCC(=O)Nc1ccc2c(c1)[C@@]1(COC(N)=N1)c1cc(OC)ccc1O2` [compound 613], the pIC50 at BACE1 [1] (setting [5]) and on BACE1 [2] (setting [6]) was 6.00 to 7.00 in each case.

For the compound `NC1=N[C@]2(CO1)c1cc(C3=CCOCC3)ccc1Oc1ccc(C3CC3)cc12` [compound 756], the pIC50 at BACE1 [1] (read-out: BACE1 FRET assay) was 6.00 to 7.00; at BACE1 [2] (read-out: HEK cell assay) it was 5.30 to 6.00.

In the case of `NC1=N[C@@]2(CO1)c1cc(-c3cccnc3)ccc1Oc1ccc(-c3csc(C4CC4)n3)cc12` [compound 632], the pIC50 at BACE1 [1] (setting [5]) is above 7.00; on BACE1 [2] (setting [6]), 6.00 to 7.00.

As to `CC(C)(C)COc1ccc2c(c1)[C@]1(COC(N)=N1)c1cc(-c3cccnc3)ncc1O2` [compound 750], the pIC50 is above 7.00 at BACE1 [1] (read-out: BACE1 FRET assay) and 6.00 to 7.00 at BACE1 [2] (read-out: HEK cell assay).

For the compound `CNCc1ccc(-c2ccc3c(c2)[C@]2(COC(N)=N2)c2cc(OCC(C)(C)C)ccc2O3)cc1` [compound 784], the values for the pIC50 on BACE1 [1] (read-out: BACE1 FRET assay) and on BACE1 [2] (read-out: HEK cell assay) were 6.00 to 7.00 and 5.30 to 6.00, respectively.

`C[C@](O)(C#Cc1ccc2c(c1)[C@]1(COC(N)=N1)c1cc(-c3cccnc3)ccc1O2)C(F)(F)F` [compound 698]: the pIC50 on BACE1 [1] (read-out: BACE1 FRET assay) and at BACE1 [2] (read-out: HEK cell assay) was above 7.00 each time.

For `CC(C)(C)CCOc1nccc2c1[C@]1(COC(N)=N1)c1cc(-c3cccnc3)ccc1O2` [compound 932], the pIC50 at BACE1 [1] (read-out: BACE1 FRET assay) and on BACE1 [2] (read-out: HEK cell assay) was 6.00 to 7.00 throughout.

Turning to `NC1=N[C@@]2(CO1)c1cc(-c3cccnc3)ccc1Oc1ccc(C3CC3)cc12` [compound 758], the pIC50 on BACE1 [1] (read-out: BACE1 FRET assay) is above 7.00; at BACE1 [2] (read-out: HEK cell assay), 6.00 to 7.00.

In the case of `CC(C)(C)COc1ccc2c(c1)[C@@]1(CSC(N)=N1)c1cc(-c3cncnc3)ccc1O2` [compound 721], the pIC50 on BACE1 [1] (read-out: BACE1 FRET assay) is above 7.00; at BACE1 [2] (read-out: HEK cell assay) it was 5.30 to 6.00.
